Data published in patent US20140329863A1 (priority 2011, published 2014).
Where two headings read alike, the source gives them in different places.

Experiments:
[1] = test system: PrP^C in T98G cells; type: cell-based, human; details: read-out: EC50 (μM) ELISA potency, PrP^C in T98G cells
[2] = test system: PrP^Sc in nondividing ScN2a-cl3 cells; type: cell-based, mouse; details: for EC50: read-out: Non-Dividing ELISA EC50 (μM) Mean (n = 3), ScN2a-c13 non-dividing cells, mean n = 3; for Inhibition of Baseline PrP^5c (%) Non-dividing Cells ELISA: SPC assay, nondividing cells
[3] = test system: N2a-cl3 cells; assay: cells; details: Mus musculus, N2a-cl3, read-out: Dividing Calcein EC50 (μM) Mean (n = 3)
[4] = test system: PrP^Sc in dividing ScN2a-cl3 cells; type: cell-based, mouse; parameters: Dividing ELISA pEC50 (μM) 1st Expt. / Dividing ELISA pEC50 (μM) 2nd Expt. / Dividing ELISA pEC50 (μM) 3rd Expt. / Dividing ELISA pEC50 (μM) Mean: unit not given here; details: for Inhibition of Baseline PrP^5c (%) Dividing Cells ELISA: SPC assay
[5] = Hepatic microsomal stability, human; details: human liver microsomes; for Hepatic Extraction Ratio Human: predicted hepatic extraction; for half-life at 1 μM: human, pH 7.4
[6] = Hepatic microsomal stability, mouse; details: mouse liver microsomes; for Hepatic Extraction Ratio Mouse: predicted hepatic extraction; for half-life at 1 μM: mouse, pH 7.4
[7] = test system: N2a-cl3 cells
[8] = test system: PrP^Sc in ScN2a-cl3 cells; type: cell-based, mouse; details: Western immunoblots
[9] = ScN2a-cl3 dividing cells, 1st determination
[10] = ScN2a-cl3 dividing cells, 2nd determination
[11] = ScN2a-cl3 dividing cells, 3rd determination
[12] = ScN2a-cl3 dividing cells, mean of three determinations
[13] = read-out: Dividing ELISA EC50 (μM) 1st Expt., ScN2a-cl3 dividing cells, 1st determination
[14] = read-out: Dividing ELISA EC50 (μM) 2nd Expt., ScN2a-cl3 dividing cells, 2nd determination
[15] = read-out: Dividing ELISA EC50 (μM) 3rd Expt., ScN2a-cl3 dividing cells, 3rd determination
[16] = read-out: Dividing ELISA EC50 (μM) Mean, ScN2a-cl3 dividing cells, mean of three determinations

Cc1cc(C)c(S(=O)(=O)NCc2ccncc2)c(C)c1 [IND18762]
EC50 [1]: 4.13 µM

COc1cc2c(cc1OC)-c1nc(Nc3ccc(C)cn3)sc1C2 [compound 39, (5,6-Dimethoxy-8H-indeno-[1,2-d]thiazol-2-yl)-(5-methylpyridin-2-yl)-amine]
EC50 [2]: > 32 µM
EC50 [3]: > 32 µM
Dividing ELISA pEC50 (μM) 1st Expt. [4, 9]: 5.46
Dividing ELISA pEC50 (μM) 2nd Expt. [4, 10]: 5.23
Dividing ELISA pEC50 (μM) 3rd Expt. [4, 11]: 5.13
Dividing ELISA pEC50 (μM) Mean [4, 12]: 5.27
EC50 [4, 13]: 3.45 µM
EC50 [4, 14]: 5.93 µM
EC50 [4, 15]: 7.38 µM
EC50 [4, 16]: 5.59 µM

COc1ccc(Cl)cc1C(=O)N1CC(=O)Nc2ccccc21 [IND116063]
EC50 [1]: 0.647 µM

O=C(Nc1ccc(I)cn1)c1cccc(F)c1 [IND84911]
EC50 [1]: 0.55 µM

COc1ccc(S(=O)(=O)N2CCOc3ccccc32)cc1 [IND116071]
Hepatic Extraction Ratio Human [5]: 0.94
half-life at 1 μM [5]: 4.53 min
EC50 [1]: 1.71 µM
Hepatic Extraction Ratio Mouse [6]: 0.98
half-life at 1 μM [6]: 1.53 min

OCCNCc1cc(Br)ccc1OCc1ccc(Cl)cc1Cl [IND-0033452]
Calcein [7]: MW: 405.1 EC50 (nM): ELISA: 2850 Calcein: 27% Western: 1993
Calcein (value printed in %) ([7]; mouse): 27%
EC50 ([8]; ScN2a-cl3 cells, read-out: EC50 (nM): Western): 1990 nM
EC50 ([8]; read-out: Potency (nM) Western (EC50), dividing ScN2a-cl3 cells): 1990 nM
EC50 ([4]; dividing ScN2a-cl3 cells, read-out: EC50 (nM): ELISA): 2.85 µM
EC50 ([4]; read-out: Potency (nM) ELISA (EC50), PrP^Sc ELISA, dividing ScN2a-cl3 cells): 2.85 µM

c1ccc(-c2cc(-c3csc(Nc4cc5ccccc5cn4)n3)on2)cc1 [compound 35, Isoquinolin-3-yl-[4-(3-phenylisoxazol-5-yl)-thiazol-2-yl]-amine]
EC50 [2]: > 32 µM
EC50 [3]: > 32 µM
Dividing ELISA pEC50 (μM) 1st Expt. [4, 9]: 5.93
Dividing ELISA pEC50 (μM) 2nd Expt. [4, 10]: 6.24
Dividing ELISA pEC50 (μM) 3rd Expt. [4, 11]: 6.18
Dividing ELISA pEC50 (μM) Mean [4, 12]: 6.12
EC50 [4, 13]: 1.16 µM
EC50 [4, 14]: 0.573 µM
EC50 [4, 15]: 0.663 µM
EC50 [4, 16]: 0.799 µM

CC1=CC(C)(C)N(S(=O)(=O)c2ccc(C)cc2)c2cc(C)ccc21 [IND5418]
EC50 [1]: 0.649 µM

COc1ccc(Cl)cc1NS(=O)(=O)c1ccc(N2CCCC2=O)cc1 [IND126331]
EC50 [1]: 0.684 µM

CCOc1ccc(Nc2nc(-c3c(C)nc4sccn34)cs2)cc1 [IND126328]
Hepatic Extraction Ratio Human [5]: 0.76
half-life at 1 μM [5]: 21.9 min
EC50 [1]: 0.065 µM
Hepatic Extraction Ratio Mouse [6]: 0.86
half-life at 1 μM [6]: 9.64 min

COc1cccc(N2CCN(C(=O)c3cc(C)ccc3OC)CC2)c1 [IND126339]
Hepatic Extraction Ratio Human [5]: 0.87
half-life at 1 μM [5]: 10.3 min
EC50 [1]: 0.248 µM
Hepatic Extraction Ratio Mouse [6]: 0.95
half-life at 1 μM [6]: 3.2 min

Cc1nc2ncccn2c1-c1csc(Nc2ccc(Cl)cc2)n1 [IND115948]
EC50 [1]: 1.85 µM

CCN(CC)c1ccc2c(c1)OC(N)=C(C#N)C2c1ccccc1 (stereo not shown) [IND126322]
EC50 [1]: 0.174 µM

CCOC(=O)c1[nH]c(C)c(C(=O)c2ccc(C)cc2)c1C [IND5672]
EC50 [1]: 0.593 µM

Cc1ccn2c(-c3csc(Nc4ccc(N(C)C)nc4)n3)c(C)nc2c1 [IND9756]
EC50 [1]: 0.18 µM

O=C(Nc1ccncc1)C1CCCN1S(=O)(=O)c1ccc2ccccc2c1 (stereo not shown) [IND86287]
EC50 [1]: 2.65 µM

CCOc1ccc2c(c1)C(C)=CC(C)(C)N2S(=O)(=O)c1ccc(C)cc1 [IND16365]
EC50 [1]: 0.304 µM

CCc1nnc(NC(=O)c2ccoc2COc2ccccc2)s1 [IND85692]
EC50 [1]: 2.28 µM

Cc1c(C(=O)OC(C)C)[nH]c2c1C(=O)CC(c1cccs1)C2 (stereo not shown) [IND116088]
Hepatic Extraction Ratio Human [5]: 0.74
half-life at 1 μM [5]: 23.9 min
EC50 [1]: 0.303 µM
Hepatic Extraction Ratio Mouse [6]: 0.90
half-life at 1 μM [6]: 6.88 min

Cc1nc2sccn2c1-c1csc(Nc2ccc(N(C)C)nc2)n1 [IND126306]
EC50 [1]: 0.217 µM

CCOC(=O)c1[nH]c2c(c1C)C(=O)CC(c1ccccc1Cl)C2 (stereo not shown) [IND126429]
EC50 [1]: 0.497 µM

CCOC(=O)c1[nH]c2c(c1C)C(=O)CC(c1ccccc1)C2 (stereo not shown) [IND126432]
EC50 [1]: 0.144 µM

CCOc1ccccc1C1C(C#N)=C(N)Oc2cc(N(C)C)ccc21 (stereo not shown) [IND8541]
Hepatic Extraction Ratio Human [5]: 0.77
half-life at 1 μM [5]: 20.3 min
EC50 [1]: 0.155 µM
Hepatic Extraction Ratio Mouse [6]: 0.97
half-life at 1 μM [6]: 1.71 min

c1ccc2cc(Nc3nc(-c4ccncc4)cs3)ncc2c1 [compound 32]
EC50 [2]: > 32 µM
EC50 ([7]; read-out: Dividing Calcein EC50 (μM) Mean (n = 3)): > 32 µM
Dividing ELISA pEC50 (μM) 1st Expt. [4, 9]: 6.58
EC50 ([4]; ScN2a-cl3 dividing cells, 1st determination, read-out: Dividing ELISA EC50 (μM) 1st Expt.): 0.261 µM
Dividing ELISA pEC50 (μM) 2nd Expt. [4, 10]: 6.56
EC50 ([4]; ScN2a-cl3 dividing cells, 2nd determination, read-out: Dividing ELISA EC50 (μM) 2nd Expt.): 0.277 µM
Dividing ELISA pEC50 (μM) 3rd Expt. [4, 11]: 6.42
EC50 ([4]; ScN2a-cl3 dividing cells, 3rd determination, read-out: Dividing ELISA EC50 (μM) 3rd Expt.): 0.383 µM
Dividing ELISA pEC50 (μM) Mean [4, 12]: 6.52
EC50 ([4]; ScN2a-cl3 dividing cells, mean of three determinations, read-out: Dividing ELISA EC50 (μM) Mean): 0.307 µM

CNCCc1c(-c2ccccc2)n(-c2ccccc2)c2ccccc12 [IND-10094]
Inhibition of Baseline PrP^5c (%) Non-dividing Cells ELISA [2]: 46%
Dividing Cells V (cell viability percentages) [7]: 19%
Non-dividing Cells V (cell viability percentages) [7]: 21%
Inhibition of Baseline PrP^5c (%) Dividing Cells ELISA [4]: 81%

O=C(Nc1ccc(Cl)cc1)Nc1ccc(Cl)c(F)c1 [IND-19237]
Inhibition of Baseline PrP^5c (%) Non-dividing Cells ELISA [2]: 66%
Dividing Cells V (cell viability percentages) [7]: 2%
Non-dividing Cells V (cell viability percentages) [7]: 26%
Inhibition of Baseline PrP^5c (%) Dividing Cells ELISA [4]: 25%

O=C(Nc1ccc(Cl)c(Cl)c1)NC(CC(=O)c1ccc([N+](=O)[O-])cc1)C(Cl)(Cl)Cl (stereo not shown) [IND-10851]
Inhibition of Baseline PrP^5c (%) Non-dividing Cells ELISA [2]: 61%
Dividing Cells V (cell viability percentages) [7]: 15%
Non-dividing Cells V (cell viability percentages) [7]: 19%
Inhibition of Baseline PrP^5c (%) Dividing Cells ELISA [4]: 83%

COc1cc(C(=O)c2cc(Cl)ccc2N)cc(OC)c1OC [IND1323]
EC50 [1]: 0.085 µM

CN(C)c1ccc2c(c1)OC(N)=C(C#N)C2c1cccs1 (stereo not shown) [IND23846]
EC50 [1]: 0.21 µM

COc1ccccc1C(=O)N1CCN(c2ccccc2OC)CC1 [IND116050]
EC50 [1]: 0.887 µM

COC(=O)c1[nH]c2c(c1C)C(=O)CC(c1cccs1)C2 (stereo not shown) [IND73602]
EC50 [1]: 0.521 µM

N#Cc1c(NC(=O)CCc2cccs2)sc2c1CCCC2 [IND82865]
EC50 [1]: 0.242 µM

CN(C)c1ccc2c(c1)OC(N)=C(C#N)C2c1cccc(F)c1 (stereo not shown) [IND17990]
EC50 [1]: 0.031 µM
